In ChEMBL document CHEMBL3286119, “Biarylmethoxy Nicotinamides As Novel and Specific Inhibitors of Mycobacterium tuberculosis” (ACS Med Chem Lett, 2014):
pIC50: −log10 of the molar value. ≈ marks a conversion by molar mass, not a printed value. Calls of active or inactive are those of the source. The rule behind the calls is not given here.

Assays:
[1] = test system: Mycobacterium tuberculosis; experiment: Antimicrobial activity against Mycobacterium tuberculosis 97A clinical isolate after 2 to 3 weeks; type: functional, organism-based
[2] = test system: Mycobacterium tuberculosis; experiment: Antimicrobial activity against Mycobacterium tuberculosis JALMA clinical isolate after 2 to 3 weeks; type: functional, organism-based
Cytochrome P450 2D6 = Cytochrome P450 2D6 (Homo sapiens, UniProt P10635); experiment: Inhibition of CYP2D6 (unknown origin); type: ADME
Cytochrome P450 1A2 = molecular target: T1, Cytochrome P450 1A2 (Homo sapiens, UniProt P05177); experiment: Inhibition of CYP1A2 (unknown origin); type: ADME
T1 sequence (P05177 whole entry): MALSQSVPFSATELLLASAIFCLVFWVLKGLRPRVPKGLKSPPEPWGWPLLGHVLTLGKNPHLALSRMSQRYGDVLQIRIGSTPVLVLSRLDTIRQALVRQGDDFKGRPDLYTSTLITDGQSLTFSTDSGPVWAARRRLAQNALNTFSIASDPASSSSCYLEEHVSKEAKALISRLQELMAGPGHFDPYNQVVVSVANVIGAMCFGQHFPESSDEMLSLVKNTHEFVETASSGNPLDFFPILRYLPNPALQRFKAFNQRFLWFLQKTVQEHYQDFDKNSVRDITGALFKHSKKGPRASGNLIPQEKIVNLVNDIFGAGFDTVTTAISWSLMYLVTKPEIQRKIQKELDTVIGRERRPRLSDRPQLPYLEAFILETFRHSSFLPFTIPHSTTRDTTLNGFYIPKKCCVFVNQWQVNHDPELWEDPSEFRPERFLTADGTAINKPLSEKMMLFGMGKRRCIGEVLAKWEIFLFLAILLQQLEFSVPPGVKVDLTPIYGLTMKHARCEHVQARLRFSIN

[3] = test system: Mycobacterium tuberculosis; experiment: Antimicrobial activity against Mycobacterium tuberculosis Beijing after 2 to 3 weeks; type: functional, organism-based
[4] = test system: Mycobacterium tuberculosis; experiment: Antimicrobial activity against Mycobacterium tuberculosis Erdman after 2 to 3 weeks; type: functional, organism-based
[5] = test system: Mycobacterium tuberculosis; experiment: Antimicrobial activity against Mycobacterium tuberculosis DKU211 clinical isolate after 2 to 3 weeks; type: functional, organism-based
[6] = Fraction unbound in human plasma; type: ADME, cell-free
[7] = Cytotoxicity against human THP1 cells after 24 hrs by resazurin assay; type: cell-based, THP-1; settings: read-out: MIC
[8] = test system: Mycobacterium tuberculosis; experiment: Antimicrobial activity against Mycobacterium tuberculosis ATCC 25618 after 2 to 3 weeks; type: functional, organism-based
[9] = test system: Mycobacterium tuberculosis; experiment: Antimicrobial activity against Mycobacterium tuberculosis ATCC 35811 after 2 to 3 weeks; type: functional, organism-based
[10] = test system: Mycobacterium tuberculosis; experiment: Antimicrobial activity against ofloxacin Mycobacterium tuberculosis 12119 after 2 to 3 weeks; type: functional, organism-based
[11] = test system: Mycobacterium tuberculosis; experiment: Antimicrobial activity against Mycobacterium tuberculosis DKU220 clinical isolate after 2 to 3 weeks; type: functional, organism-based
[12] = Lipophilicity, log D of the compound; type: physicochemical; settings: octanol/water
[13] = test system: Mycobacterium tuberculosis; experiment: Antimicrobial activity against Mycobacterium tuberculosis DKU 76 clinical isolate after 2 to 3 weeks; type: functional, organism-based
Cytochrome P450 3A4 = Cytochrome P450 3A4 (Homo sapiens, UniProt P08684); experiment: Inhibition of CYP3A4 (unknown origin); type: ADME
[14] = test system: Mycobacterium tuberculosis; experiment: Antimicrobial activity against Mycobacterium tuberculosis Harlingen after 2 to 3 weeks; type: functional, organism-based
[15] = test system: Mycobacterium tuberculosis; experiment: Antimicrobial activity against Mycobacterium tuberculosis H37Rv ATCC 27294 after 5 days by microdilution method; type: functional; settings: H37Rv ATCC 27294, 120 h
Candida albicans = experiment: Antimicrobial activity against Candida albicans ARC526 after 5 days by microdilution method; type: functional; settings: ARC526, 120 h
Staphylococcus aureus = experiment: Antimicrobial activity against Staphylococcus aureus ARC517 after 5 days by microdilution method; type: functional; settings: ARC517, 120 h
Haemophilus influenzae [16] = experiment: Antimicrobial activity against Haemophilus influenzae ARC446 after 5 days by microdilution method; type: functional; settings: ARC446, 120 h
Cytochrome P450 2C19 = Cytochrome P450 2C19 (Homo sapiens, UniProt P33261); experiment: Inhibition of CYP2C19 (unknown origin); type: ADME
Klebsiella pneumoniae = experiment: Antimicrobial activity against Klebsiella pneumoniae ARC1865 after 5 days by microdilution method; type: functional; settings: ARC1865, 120 h
Streptococcus pyogenes = experiment: Antimicrobial activity against Streptococcus pyogenes after 5 days by microdilution method; type: functional; settings: 120 h
Streptococcus pneumoniae = experiment: Antimicrobial activity against Streptococcus pneumoniae ARC548 after 5 days by microdilution method; type: functional; settings: ARC548, 120 h
Escherichia coli [17] = experiment: Antimicrobial activity against Escherichia coli ARC524 after 5 days by microdilution method; type: functional; settings: ARC524, 120 h
Pseudomonas aeruginosa [18] = experiment: Antimicrobial activity against Pseudomonas aeruginosa ARC546 after 5 days by microdilution method; type: functional; settings: ARC546, 120 h
Escherichia coli [19] = experiment: Antimicrobial activity against Escherichia coli ARC523 after 5 days by microdilution method; type: functional; settings: ARC523, 120 h
Pseudomonas aeruginosa [20] = experiment: Antimicrobial activity against Pseudomonas aeruginosa ARC545 after 5 days by microdilution method; type: functional; settings: ARC545, 120 h
Haemophilus influenzae [21] = experiment: Antimicrobial activity against Haemophilus influenzae ARC158 after 5 days by microdilution method; type: functional; settings: ARC158, 120 h
[22] = Selectivity index, ratio of MIC for human THP1 cells to MIC for Mycobacterium tuberculosis H37Rv ATCC 27294; type: toxicity, cell-based, THP-1; settings: read-out: Selectivity Index
Cytochrome P450 2C9 = Cytochrome P450 2C9 (Homo sapiens, UniProt P11712); experiment: Inhibition of CYP2C9 (unknown origin); type: ADME
Chain of Cytochrome P450 2C9 (P11712 whole entry): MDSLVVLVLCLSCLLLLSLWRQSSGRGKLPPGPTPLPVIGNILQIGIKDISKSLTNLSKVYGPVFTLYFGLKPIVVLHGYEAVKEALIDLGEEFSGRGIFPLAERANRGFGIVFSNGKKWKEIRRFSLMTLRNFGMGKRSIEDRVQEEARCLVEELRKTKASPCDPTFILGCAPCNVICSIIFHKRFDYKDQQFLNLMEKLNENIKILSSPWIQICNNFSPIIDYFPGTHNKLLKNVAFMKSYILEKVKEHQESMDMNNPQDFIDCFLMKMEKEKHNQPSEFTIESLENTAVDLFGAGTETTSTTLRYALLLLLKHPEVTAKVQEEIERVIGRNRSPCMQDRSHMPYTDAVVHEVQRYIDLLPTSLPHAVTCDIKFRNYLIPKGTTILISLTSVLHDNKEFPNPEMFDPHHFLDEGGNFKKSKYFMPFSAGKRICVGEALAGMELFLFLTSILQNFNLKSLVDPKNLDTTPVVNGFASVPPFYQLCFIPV

Chain of Cytochrome P450 3A4 (P08684 whole entry): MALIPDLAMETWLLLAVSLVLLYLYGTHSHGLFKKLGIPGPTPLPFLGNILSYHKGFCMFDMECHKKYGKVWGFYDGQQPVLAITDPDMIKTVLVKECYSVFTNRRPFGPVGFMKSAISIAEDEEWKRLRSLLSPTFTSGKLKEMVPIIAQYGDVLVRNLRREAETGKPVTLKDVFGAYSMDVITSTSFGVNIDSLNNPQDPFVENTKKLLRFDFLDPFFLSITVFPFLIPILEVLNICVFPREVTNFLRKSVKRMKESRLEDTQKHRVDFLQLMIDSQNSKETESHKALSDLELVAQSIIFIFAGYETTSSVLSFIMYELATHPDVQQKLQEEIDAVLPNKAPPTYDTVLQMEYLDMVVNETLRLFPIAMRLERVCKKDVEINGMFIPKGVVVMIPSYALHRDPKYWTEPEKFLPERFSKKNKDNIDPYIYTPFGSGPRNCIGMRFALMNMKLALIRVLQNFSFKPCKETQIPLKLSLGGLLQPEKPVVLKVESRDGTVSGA
Chain of Cytochrome P450 2D6 (P10635 whole entry): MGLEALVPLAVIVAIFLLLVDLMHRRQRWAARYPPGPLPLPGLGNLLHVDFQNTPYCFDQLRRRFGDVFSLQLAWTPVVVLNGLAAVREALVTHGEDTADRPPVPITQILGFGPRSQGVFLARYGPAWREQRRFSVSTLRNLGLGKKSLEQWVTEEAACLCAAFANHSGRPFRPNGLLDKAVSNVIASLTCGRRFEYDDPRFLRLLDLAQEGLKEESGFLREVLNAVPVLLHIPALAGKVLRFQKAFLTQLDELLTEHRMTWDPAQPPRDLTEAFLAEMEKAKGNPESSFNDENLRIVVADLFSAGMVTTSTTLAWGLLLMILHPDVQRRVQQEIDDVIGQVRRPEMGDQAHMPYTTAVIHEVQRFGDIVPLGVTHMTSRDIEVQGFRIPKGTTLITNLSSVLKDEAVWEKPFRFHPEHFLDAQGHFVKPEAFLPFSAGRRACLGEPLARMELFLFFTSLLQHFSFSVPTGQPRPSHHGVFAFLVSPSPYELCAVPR
Chain of Cytochrome P450 2C19 (P33261 whole entry): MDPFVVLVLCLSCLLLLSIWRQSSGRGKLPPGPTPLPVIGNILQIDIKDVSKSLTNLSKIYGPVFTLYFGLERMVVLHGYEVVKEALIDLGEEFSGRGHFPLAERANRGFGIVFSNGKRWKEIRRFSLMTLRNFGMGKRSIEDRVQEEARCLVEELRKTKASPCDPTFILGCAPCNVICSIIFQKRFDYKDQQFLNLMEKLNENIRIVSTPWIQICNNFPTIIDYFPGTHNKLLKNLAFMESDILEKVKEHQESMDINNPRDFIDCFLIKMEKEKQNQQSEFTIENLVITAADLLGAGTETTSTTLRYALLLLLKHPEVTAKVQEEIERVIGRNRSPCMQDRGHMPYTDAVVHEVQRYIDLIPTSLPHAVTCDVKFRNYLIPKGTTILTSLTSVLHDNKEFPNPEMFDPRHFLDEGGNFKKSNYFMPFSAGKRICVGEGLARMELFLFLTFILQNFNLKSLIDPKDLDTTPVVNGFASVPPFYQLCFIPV

Row | SMILES | MCC at 24 h [7] | logD [12] | MIC [15] | MIC80 (Candida albicans) | MIC80 (Staphylococcus aureus) | MIC80 (Haemophilus influenzae [16]) | MIC80 (Klebsiella pneumoniae) | MIC80 (Streptococcus pyogenes) | MIC80 (Streptococcus pneumoniae) | MIC80 (Escherichia coli [17]) | MIC80 (Pseudomonas aeruginosa [18]) | MIC80 (Escherichia coli [19]) | MIC (Pseudomonas aeruginosa [20]) | MIC80 (Haemophilus influenzae [21]) | further results
1 | COCCOc1ccc(-c2ccc(COc3ncccc3C(N)=O)nc2)c(C)c1 | > 50 µM | 2.8 | 0.6 µM (≈ 0.236 µg/mL) |  |  |  |  |  |  |  |  |  |  |  | Activity [1]: Active; Activity [2]: Active; inhibition (INH) (Cytochrome P450 2D6): Not Active; inhibition (INH) (Cytochrome P450 1A2): Not Active; Activity [3]: Active; Activity [4]: Active; Activity [5]: Active; fraction unbound [6]: 0.042; Activity [8]: Active; Activity [9]: Active; Activity [10]: Active; Activity [11]: Active; Activity [13]: Active; inhibition (INH) (Cytochrome P450 3A4): Not Active; Activity [14]: Active
2 | NC(=O)c1cccnc1OCc1ncc(-c2ccc(OCCCF)cc2Cl)cn1 | > 250 µM | 2.8 | 0.12 µM (≈ 0.05 µg/mL) | > 60 µM | > 60 µM | > 60 µM | > 60 µM | > 60 µM | > 60 µM | > 60 µM | > 60 µM | > 60 µM | > 60 µM | > 60 µM | Activity [1]: Active; Activity [2]: Active; pIC50 (Cytochrome P450 2C19): 4.74; Activity [3]: Active; Activity [4]: Active; Activity [5]: Active; Activity [8]: Active; Activity [9]: Active; Activity [10]: Active; Activity [11]: Active; Activity [13]: Active; Activity [14]: Active
3 | NC(=O)c1cccnc1OCc1ccc(-c2ccccc2)cn1 |  |  | > 50 µM |  |  |  |  |  |  |  |  |  |  |  | 
4 | COc1ccc(-c2ccc(COc3ncccc3C(N)=O)nc2)c(Cl)c1 | > 50 µM |  | 5.4 µM (≈ 2 µg/mL) |  |  |  |  |  |  |  |  |  |  |  | 
5 | Cc1cc(OC[C@@H]2CCCO2)ccc1-c1ccc(COc2ncccc2C(N)=O)nc1 | > 50 µM |  | 1.2 µM (≈ 0.503 µg/mL) |  |  |  |  |  |  |  |  |  |  |  | 
6 | COCCOc1ccc(-c2ccc(COc3ncccc3C(=O)N3CCC(O)C3)nc2)c(C)c1 (configuration not stated) | > 50 µM |  | > 75 µM |  |  |  |  |  |  |  |  |  |  |  | 
7 | CNC(=O)c1cccnc1OCc1ccc(-c2ccc(OCCOC)cc2C)cn1 | > 50 µM |  | 1.2 µM (≈ 0.489 µg/mL) |  |  |  |  |  |  |  |  |  |  |  | 
8 | CC(C)OCCOc1ccc(-c2cnc(COc3ncccc3C(N)=O)nc2)c(Cl)c1 | > 250 µM | 2.8 | 0.12 µM (≈ 0.0531 µg/mL) | > 60 µM | > 60 µM | > 60 µM | > 60 µM | > 60 µM | > 60 µM | > 60 µM | > 60 µM | > 60 µM | > 60 µM | > 60 µM | selectivity ratio [22]: > 2500; Activity [1]: Active; Activity [2]: Active; Activity [3]: Active; Activity [4]: Active; Activity [5]: Active; Activity [8]: Active; Activity [9]: Active; pIC50 (Cytochrome P450 2C9): 4.72; Activity [10]: Active; Activity [11]: Active; Activity [13]: Active; Activity [14]: Active
9 | COCCOc1ccc(-c2ccc(COc3ncccc3C(=O)NC3CCN(C)CC3)nc2)c(C)c1 | > 50 µM |  | 8.1 µM (≈ 3.97 µg/mL) |  |  |  |  |  |  |  |  |  |  |  | 
10 | COCCOc1ccc(-c2ccc(COc3nccnc3C(N)=O)nc2)c(C)c1 | > 50 µM |  | 40.5 µM (≈ 16 µg/mL) |  |  |  |  |  |  |  |  |  |  |  | 
11 | NC(=O)c1cccnc1OCc1ccc(-c2ccc(OCC3CCCO3)cc2Cl)cn1 (configuration not stated) | > 50 µM | 2.8 | 1.1 µM (≈ 0.484 µg/mL) | > 60 µM | > 60 µM | > 60 µM | > 60 µM | > 60 µM | > 60 µM | > 60 µM | > 60 µM | > 60 µM | > 60 µM | > 60 µM | 
12 | COCCOc1ccc(-c2cnc(COc3ncccc3C(N)=O)nc2)c(C)c1 | > 50 µM |  | 1.5 µM (≈ 0.592 µg/mL) | > 60 µM | > 60 µM | > 60 µM | > 60 µM | > 60 µM | > 60 µM | > 60 µM | > 60 µM | > 60 µM | > 60 µM | > 60 µM | 
13 | CCN(CC)CCOc1ccc(-c2ccc(COc3ncccc3C(N)=O)nc2)c(C)c1 |  |  | > 100 µM |  |  |  |  |  |  |  |  |  |  |  | 
